# Structures can show the parent of a compound that is named as a salt.
# Tested on: CHIKV replicon
# Experiment: microbe, parasite or virus in culture
# Type: cell-based, Chikungunya virus (CHIKV)
# Conditions: not given
row,SMILES,CHIKV replicon % left
1,Cc1ncc(C[n+]2csc(CCO)c2C)c(N)n1.O=[N+]([O-])[O-] [Thiamine mononitrate],85.0%
2,"O=C(O)c1c(O)cccc1O [2,6-Dihydroxybenzoic acid]",62.3%
3,Cc1ccc2oc(=O)ccc2c1 [6-Methylcoumarin],106.5%
4,CN(C)CCCN1c2ccccc2Sc2ccc(Cl)cc21 [Chlorpromazine hydrochloride],105.4%
5,C[C@H](C(=O)O)c1cccc(C(=O)c2ccccc2)c1.C[C@H](C(=O)O)c1cccc(C(=O)c2ccccc2)c1,99.6%
6,CN1[C@@H]2CC[C@H]1C[C@@H](OC(=O)C(O)c1ccccc1)C2 (stereo partly shown) [Homatropine hydrobromide],100.4%

# Tested on: SFV-Rluc
# Experiment: not given
# Conditions: not given
row,SMILES,"SFV replication % left (surviving fraction, remaining percentage of SFV replication)"
1,Cc1ncc(C[n+]2csc(CCO)c2C)c(N)n1.O=[N+]([O-])[O-] [Thiamine mononitrate],95.2%
2,"O=C(O)c1c(O)cccc1O [2,6-Dihydroxybenzoic acid]",118.7%
3,Cc1ccc2oc(=O)ccc2c1 [6-Methylcoumarin],83.6%
4,CC(C)NCC(O)COc1cccc2ccccc12.Cl (stereo not shown) [PC-174],74.0%
5,Cc1nnc(NS(=O)(=O)c2ccc(N)cc2)s1 [PC-200],100.4%
6,Cc1ncc(CO)c(CO)c1O.Cl [PC-178],100.9%
7,CC(C)NCC(O)COc1ccc(CC(N)=O)cc1 (stereo not shown) [Atenolol],44.2%
8,CCC1(c2ccccc2)C(=O)NC(=O)NC1=O [PC-153],58.6%
9,CCOc1ccc(NC(C)=O)cc1 [PC-151],80.6%
10,CCN(CC)CCNC(=O)c1ccc(N)cc1.Cl [PC-166],89.0%
11,Oc1cccc(O)c1 [PC-181],67.1%
12,CC(C)(C)NC[C@H](O)COc1nsnc1N1CCOCC1.O=C(O)/C=C\C(=O)O [PC-225],129.1%
13,COc1ccc(CN(CCN(C)C)c2ccccn2)cc1.O=C(O)/C=C\C(=O)O [PC-179],73.7%
14,CC(C)NCC(O)c1ccc(NS(C)(=O)=O)cc1.Cl (stereo not shown) [PC-191],100.5%

# Same assay, conditions: Supplementary Table 2, moderately active compounds (25 - 60% remaining), primary screen at 50 µM
row,SMILES,% left (remaining SFV replication)
1,COc1cc(-c2oc3cc(O)cc(O)c3c(=O)c2O)ccc1O [NC-056],28.9%
2,Cc1ccc(C(C)C)c(O)c1 [NC-101],42.0%

# Same assay, conditions: primary screening of chemical libraries; compounds tested at 50 µM
row,SMILES,SFV replication % left
1,O=c1cc(-c2ccc(O)c(O)c2)oc2cc(O)cc(O)c12 [NC-061],71.3%
2,CC(C)(O)C(Cl)(Cl)Cl [PC-042],84.2%
3,CCN(CC)C(=O)c1ccc(O)c(OC)c1 [PC-073],85.5%
4,Oc1cc(O)c2c(c1)O[C@H](c1ccc(O)c(O)c1)[C@@H](O)C2 [NC-011],64.5%
5,CN(C)CCC=C1c2ccccc2COc2ccccc21.Cl [PC-070],21.6%
6,COc1cc(-c2oc3cc(O)cc(O)c3c(=O)c2O)ccc1O [NC-056],28.9%
7,O=C1c2c(O)cccc2Cc2cccc(O)c21 [PC-066],27.2%
8,CC(C)(C)NC[C@H](O)COc1cccc2c1CCCC2=O [PC-027],59.6%
9,NC(=O)N/N=C/c1ccc([N+](=O)[O-])o1 [PC-132],83.7%
10,NCCCS(=O)(=O)O [PC-090],118.7%
11,C#C[C@]1(O)CC[C@H]2[C@@H]3CCC4=CC(=O)CC[C@@H]4[C@H]3CC[C@@]21C [PC-134],107.8%
12,O.O.O.O=c1ccc2cc(O[C@@H]3O[C@H](CO)[C@@H](O)[C@H](O)[C@H]3O)c(O)cc2o1.O=c1ccc2cc(O[C@@H]3O[C@H](CO)[C@@H](O)[C@H](O)[C@H]3O)c(O)cc2o1 [NC-127],95.0%
13,COc1ccc([C@@H]2CC(=O)c3c(O)cc(O[C@@H]4O[C@H](CO[C@@H]5O[C@@H](C)[C@H](O)[C@@H](O)[C@H]5O)[C@@H](O)[C@H](O)[C@H]4O)cc3O2)cc1O [NC-046],77.7%
14,CCCCNC(=O)NS(=O)(=O)c1ccc(N)cc1 [PC-033],83.9%
15,COc1cc2oc(=O)ccc2cc1O [NC-109],120.6%
16,COc1cc2ccc(=O)oc2c(O)c1O [NC-110],103.6%
17,C=CCC1(CC=C)C(=O)NC(=O)NC1=O [PC-008],45.6%
18,Cl.Cl.OCCOCCN1CCN(C(c2ccccc2)c2ccc(Cl)cc2)CC1 (stereo not shown) [PC-097],98.3%
19,CCNCC(O)c1cccc(O)c1 (stereo not shown) [PC-078],116.8%
20,CC(CN1c2ccccc2Sc2ccccc21)[N+](C)(C)CCO.[Cl-] (stereo not shown) [PC-096],102.2%
21,O.O.O=c1c(O)c(-c2ccc(O)cc2O)oc2cc(O)cc(O)c12 [NC-067],82.9%
22,Cc1cc(C(C)(C)C)c(O)c(C(C)(C)C)c1 [NC-107],72.6%
23,O=c1cc(-c2ccc(O)c(O)c2)oc2cc(O[C@@H]3O[C@H](CO)[C@@H](O)[C@H](O)[C@H]3O)cc(O)c12 [NC-062],17.8%
24,CN(C)CC[C@@H](c1ccc(Cl)cc1)c1ccccn1.O=C(O)/C=C\C(=O)O [PC-059],68.1%

row,SMILES,SFV replication % left
1,CC(=O)Nc1ccccc1 [PC-002],57.3%
2,O=C(O)Cc1ccc(O)cc1 [NC-052],103.6%
3,COc1cc(C2Oc3cc([C@H]4Oc5cc(O)cc(O)c5C(=O)[C@@H]4O)ccc3OC2CO)ccc1O (stereo partly shown) [NC-093],22.4%
4,N/C(CC(O)COc1cccc2ccccc12)=N/O (stereo not shown) [PC-124],20.8%
5,COc1cc(/C=C/C(=O)O)cc(OC)c1O [NC-095],22.0%
6,CC(=O)Nc1nnc(S(N)(=O)=O)s1 [PC-003],71.3%
7,O=c1cc(-c2ccc(O)cc2)oc2cc(O)cc(O)c12 [NC-003],18.0%
8,CN1CCN=C(c2ccccc2)c2cc(Cl)ccc21 [PC-107],87.5%
9,CC(C)Cc1ccc(C(C)C(=O)O)cc1 (stereo not shown) [PC-099],92.8%
10,COc1c2occc2cc2ccc(=O)oc12 [NC-129],86.7%
11,Nc1ccc(Cl)cc1C(=O)c1ccccc1F [PC-083],167.4%
12,O=C1CN(/N=C/c2ccc([N+](=O)[O-])o2)C(=O)N1 [PC-131],58.9%
13,C#C[C@]1(O)CC[C@H]2[C@@H]3CCc4cc(O)ccc4[C@H]3CC[C@@]21C [PC-077],11.7%
14,CCn1cc(C(=O)O)c(=O)c2ccc(C)nc21 [PC-125],80.4%
15,O=C(O)c1ccc(O)c(O)c1 [NC-077],21.1%
16,O=C1O[C@H]([C@@H](O)CO)C(O)=C1O [NC-004],81.4%
17,O=C(O[C@@H]1Cc2c(O)cc(O)cc2O[C@@H]1c1ccc(O)c(O)c1)c1cc(O)c(O)c(O)c1 [NC-035],94.8%
18,Cc1c(C)c2c(c(C)c1O)CCC(C)(C(=O)O)O2 (stereo not shown) [NC-103],76.9%
19,O=C(O)c1ccccc1O [NC-092],69.1%
20,CC(C(=O)[O-])c1cccc(Oc2ccccc2)c1.CC(C(=O)[O-])c1cccc(Oc2ccccc2)c1.[Ca+2] (stereo not shown) [PC-080],87.6%
21,CC12CCC(CC1=O)C2(C)C (stereo not shown) [PC-036],83.9%
22,CC1=CC(=O)c2ccccc2C1=O [PC-109],28.3%
23,O=C(O)c1cc(O)ccc1O [NC-024],127.8%
24,C[C@@]12CCC[C@H]1[C@@H]1CC[C@H]3CCCC[C@]3(C)[C@H]1CC2 [PC-013],53.0%

row,SMILES,SFV replication % left
1,Oc1ccccc1O [NC-012],58.4%
2,O=C(O)c1c(O)cccc1O [NC-025],118.7%
3,CN(C)CCOC(c1ccccc1)c1ccccc1.Cl [PC-067],41.0%
4,O=c1c(O)c(-c2ccc(O)c(O)c2)oc2cc(O)c(O)c(O)c12 [NC-079],90.2%
5,CC(C)(C)NCC(O)COc1ccccc1C#N (stereo not shown) [PC-026],40.7%
6,COc1c2occc2c(OC)c2c(=O)cc(C)oc12 [NC-058],120.6%
7,Cc1ccc(C(C)C)c(O)c1 [NC-101],42.0%
8,O=C(OC[C@H]1OC(O)[C@@](O)(COC(=O)c2cc(O)c(O)c(O)c2)[C@@H]1O)c1cc(O)c(O)c(O)c1 (stereo partly shown) [NC-045],14.7%
9,Cl.NCC(O)c1ccc(O)cc1 (stereo not shown) [PC-138],102.1%
10,Oc1cc(O)c2c(c1)O[C@H](c1ccc(O)c(O)c1)[C@H](O)[C@H]2c1c(O)cc(O)c2c1O[C@H](c1ccc(O)c(O)c1)[C@H](O)C2 [NC-075],93.7%
11,COCCc1ccc(OCC(O)CNC(C)C)cc1.COCCc1ccc(OCC(O)CNC(C)C)cc1.O=C(O)C(O)C(O)C(=O)O (stereo not shown) [PC-122],65.7%
12,CCC(N)C(O)c1ccc(O)c(O)c1 (stereo not shown) [PC-076],126.8%
13,O=c1ccc2ccccc2o1 [NC-018],68.8%
14,C[N+]1(C)[C@@H]2CC[C@H]1C[C@@H](OC(=O)C(CO)c1ccccc1)C2.[Br-] (stereo partly shown) [PC-117],70.9%
15,O=C1NC(=O)C(c2ccccc2)(c2ccccc2)N1 [PC-068],66.3%
16,O=C1C[C@@H](c2ccc(O)cc2)Oc2cc(O)cc(O)c21 [NC-069],-0.0736%
17,O=C1Nc2ccc(Cl)cc2C(c2ccccc2Cl)=NC1O (stereo not shown) [PC-106],98.2%
18,O=C(O)[C@]1(O)C[C@@H](O)[C@@H](O)[C@H](O)C1 [NC-084],98.2%
19,O=C(O)c1ccccc1C(=O)O [NC-073],143.7%
20,O=C(O)c1cc(O)c(O)c(O)c1 [NC-041],148.8%
21,CC(C)NCC(O)COc1ccc(CC(N)=O)cc1 (stereo not shown) [PC-017],44.2%
22,CCOc1ccc2c(c1)C(C)=CC(C)(C)N2 [NC-038],96.4%
23,Cc1cc(=O)oc2cc(O)ccc12 [NC-065],12.0%
24,CCCCC1(CC)C(=O)NC(=O)NC1=O [PC-029],45.2%

# Source: article PMC3242765, “Inhibitors of Alphavirus Entry and Replication Identified with a Stable Chikungunya Replicon Cell Line and Virus-Based Assays” (PLoS ONE, 2011)
